The text below walks through data of ChEMBL document CHEMBL4359841, “Late-Stage Functionalization of Platensimycin Leading to Multiple Analogues with Improved Antibacterial Activity in Vitro and in Vivo” (2019).

The structures appear in SMILES notation. ≈ marks a conversion by molar mass, not a printed value. Calls of active or inactive are those of the source.

Assay [1] concerns Staphylococcus aureus. As to the kind of experiment: Antibacterial activity against methicillin-resistant Staphylococcus aureus infected in C57BL/6J mouse model of peritonitis assessed as mouse survival at 20 mg/kg, ip dosed at 1 hr and 5 hrs post infection and measured for 7 days relative to control. Format: functional.
Assay [2] has as its system Staphylococcus aureus. In words: Inhibition of FabB/FabF in methicillin-resistant Staphylococcus aureus assessed as antibacterial activity after 16 hrs by agar dilution method. A general note: In agar dilution, organisms are placed on agar that contains the substance at set levels.
Assay [3] relates to Staphylococcus aureus. As to the kind of experiment: Inhibition of FabB/FabF in Staphylococcus aureus ATCC 29213 assessed as antibacterial activity after 16 hrs by agar dilution method.
Assay [4] relates to Staphylococcus aureus. In words: Inhibition of FabB/FabF in methicillin-sensitive Staphylococcus aureus assessed as antibacterial activity after 16 hrs by agar dilution method.
Assay [5] concerns Staphylococcus aureus. As to the kind of experiment: Inhibition of FabB/FabF in methicillin-resistant Staphylococcus aureus assessed as antibacterial activity at 5 ug/disk after 18 hrs by agar disk diffusion method. Background: In agar diffusion tests the substance spreads into inoculated agar from a disc or well.
The test system of assay [6] is Staphylococcus aureus. In words: Antibacterial activity against methicillin-resistant Staphylococcus aureus infected in C57BL/6J mouse model of peritonitis assessed as mouse survival at 10 mg/kg, ip dosed at 1 hr and 5 hrs post infection and measured for 7 days relative to control. The assay is classed as functional.

In the case of `C[C@]12C[C@@]34C=C(SCc5ccccc5)C(=O)[C@@](C)(CCC(=O)Nc5c(O)ccc(C(=O)O)c5O)[C@@H]3[C@H](C[C@@H]1C4)O2`, in the assay with Staphylococcus aureus [1], the survival at 20 mg/kg amounted to 80%. Further, the MIC in the assay with Staphylococcus aureus [2], in the assay with Staphylococcus aureus [3] and in the assay with Staphylococcus aureus [4] was 0.5 µg/mL (≈ 0.887 µM) in each case. For the same compound, the “antibacterial activity (disk diffusion, qualitative)” value (“antibacterial activity” for short) in the assay on Staphylococcus aureus [5] was “Active”. Besides, the survival at 10 mg/kg in the assay with Staphylococcus aureus [6] was > 60%.
For the compound `C[C@]12C[C@@]34C=C(Sc5cccc(I)c5)C(=O)[C@@](C)(CCC(=O)Nc5c(O)ccc(C(=O)O)c5O)[C@@H]3[C@H](C[C@@H]1C4)O2`, the MIC in the assay with Staphylococcus aureus [2] came out at 0.5 µg/mL (≈ 0.74 µM); in the assay with Staphylococcus aureus [3] it was 1 µg/mL (≈ 1.48 µM); in the assay on Staphylococcus aureus [4] it was 0.5 µg/mL (≈ 0.74 µM). In addition, in the assay with Staphylococcus aureus [5], the “antibacterial activity” value is “Active”.
In the case of `C[C@]12C[C@@]34C=C(Sc5ccc(I)cc5)C(=O)[C@@](C)(CCC(=O)Nc5c(O)ccc(C(=O)O)c5O)[C@@H]3[C@H](C[C@@H]1C4)O2`, the MIC in the assay with Staphylococcus aureus [2] was found to be 0.25 µg/mL (≈ 0.37 µM); in the assay on Staphylococcus aureus [3], 0.5 µg/mL (≈ 0.74 µM); with Staphylococcus aureus [4], 0.25 µg/mL (≈ 0.37 µM). In addition, the “antibacterial activity” value in the assay on Staphylococcus aureus [5] is “Active”.
Consider `C[C@]12C[C@@]34C=C(Sc5cccc(C#Cc6ccccn6)c5)C(=O)[C@@](C)(CCC(=O)Nc5c(O)ccc(C(=O)O)c5O)[C@@H]3[C@H](C[C@@H]1C4)O2`, for which the MIC with Staphylococcus aureus [2], with Staphylococcus aureus [3] and in the assay on Staphylococcus aureus [4] was 0.5 µg/mL (≈ 0.768 µM) throughout. In the assay on Staphylococcus aureus [5], the “antibacterial activity” value is “Active”.
Turning to `C[C@]12C[C@@]34C=C(Sc5ccccn5)C(=O)[C@@](C)(CCC(=O)Nc5c(O)ccc(C(=O)O)c5O)[C@@H]3[C@H](C[C@@H]1C4)O2`, the MIC in the assay with Staphylococcus aureus [2], in the assay on Staphylococcus aureus [3] and with Staphylococcus aureus [4] was 2 µg/mL (≈ 3.63 µM) each time. In addition, the “antibacterial activity” value in the assay on Staphylococcus aureus [5] is “Active”. For the same compound, the Survival entry with Staphylococcus aureus [6] was “inactive”.
For `CCCSC1=C[C@]23C[C@H]4C[C@H](O[C@@]4(C)C2)[C@H]3[C@](C)(CCC(=O)Nc2c(O)ccc(C(=O)O)c2O)C1=O`, the MIC was 0.5 µg/mL (≈ 0.97 µM) in the assay on Staphylococcus aureus [2], 1 µg/mL (≈ 1.94 µM) in the assay on Staphylococcus aureus [3] and 0.5 µg/mL (≈ 0.97 µM) in the assay with Staphylococcus aureus [4]. The “antibacterial activity” value in the assay with Staphylococcus aureus [5] is “Active”.
For the compound `CC(=O)NC[C@H]1CN(c2ccc(N3CCOCC3)c(F)c2)C(=O)O1`, the MIC in the assay with Staphylococcus aureus [2], in the assay with Staphylococcus aureus [3] and in the assay with Staphylococcus aureus [4] was 1 µg/mL (≈ 2.96 µM) in each case. In addition, in the assay with Staphylococcus aureus [5], the “antibacterial activity” value is “Active”.
On to `C[C@]12C[C@@]34C=C(Sc5ccc(F)cc5)C(=O)[C@@](C)(CCC(=O)Nc5c(O)ccc(C(=O)O)c5O)[C@@H]3[C@H](C[C@@H]1C4)O2`, for which the results for the MIC with Staphylococcus aureus [2], with Staphylococcus aureus [3] and with Staphylococcus aureus [4] were 0.5 µg/mL (≈ 0.881 µM), 1 µg/mL (≈ 1.76 µM) and 0.5 µg/mL (≈ 0.881 µM), respectively. Also, the “antibacterial activity” value with Staphylococcus aureus [5] is “Active”.
For `C[C@]12C[C@@]34C=C(Sc5ccc(-c6ccco6)cc5)C(=O)[C@@](C)(CCC(=O)Nc5c(O)ccc(C(=O)O)c5O)[C@@H]3[C@H](C[C@@H]1C4)O2`, in the assay with Staphylococcus aureus [5], the “antibacterial activity” value is “Active”.
Regarding `C[C@]12C[C@@]34C=C(Sc5ccc(C(=O)O)cc5)C(=O)[C@@](C)(CCC(=O)Nc5c(O)ccc(C(=O)O)c5O)[C@@H]3[C@H](C[C@@H]1C4)O2`, the “antibacterial activity” value in the assay with Staphylococcus aureus [5] was “Active”.
For the compound `COc1ccc(SC2=C[C@]34C[C@H]5C[C@H](O[C@@]5(C)C3)[C@H]4[C@](C)(CCC(=O)Nc3c(O)ccc(C(=O)O)c3O)C2=O)cc1`, the “antibacterial activity” value in the assay on Staphylococcus aureus [5] was “Active”.
`C[C@]12C[C@@]34C=C(Sc5cccc(-c6ccccc6F)c5)C(=O)[C@@](C)(CCC(=O)Nc5c(O)ccc(C(=O)O)c5O)[C@@H]3[C@H](C[C@@H]1C4)O2`: the “antibacterial activity” value with Staphylococcus aureus [5] was “Active”.
With `C[C@]12C[C@@]34C=C(Sc5cccc(C#CC6(O)CCCCC6)c5)C(=O)[C@@](C)(CCC(=O)Nc5c(O)ccc(C(=O)O)c5O)[C@@H]3[C@H](C[C@@H]1C4)O2`, the MIC in the assay on Staphylococcus aureus [2], in the assay on Staphylococcus aureus [3] and in the assay with Staphylococcus aureus [4] was 0.25 µg/mL (≈ 0.372 µM) throughout. In the assay with Staphylococcus aureus [5], the “antibacterial activity” value is “Active”.
In the case of `C[C@]12C[C@@]34C=C(Sc5cccc(-c6cccc(O)c6)c5)C(=O)[C@@](C)(CCC(=O)Nc5c(O)ccc(C(=O)O)c5O)[C@@H]3[C@H](C[C@@H]1C4)O2`, the “antibacterial activity” value in the assay on Staphylococcus aureus [5] is “Active”.
Take `C[C@]12C[C@]34C[C@H]1C[C@H](O2)[C@H]3[C@](C)(CCC(=O)Nc1c(O)ccc(C(=O)O)c1O)C(=O)[C@@H]1O[C@@H]14`: the MIC in the assay on Staphylococcus aureus [2] came to 16 µg/mL (≈ 35 µM); in the assay on Staphylococcus aureus [3], 32 µg/mL (≈ 69.9 µM); in the assay with Staphylococcus aureus [4] it was 16 µg/mL (≈ 35 µM).
For the compound `C[C@]12C[C@@]34C=C(Sc5ccc(/C=C/C(=O)O)cc5)C(=O)[C@@](C)(CCC(=O)Nc5c(O)ccc(C(=O)O)c5O)[C@@H]3[C@H](C[C@@H]1C4)O2`, in the assay on Staphylococcus aureus [5], the “antibacterial activity” value is “Active”.
As for `C[C@]12C[C@@]34C=C(Sc5cccs5)C(=O)[C@@](C)(CCC(=O)Nc5c(O)ccc(C(=O)O)c5O)[C@@H]3[C@H](C[C@@H]1C4)O2`, the “antibacterial activity” value in the assay on Staphylococcus aureus [5] was “Active”.
`C[C@]12C[C@@]34C=C(Sc5cccc(C#CCN)c5)C(=O)[C@@](C)(CCC(=O)Nc5c(O)ccc(C(=O)O)c5O)[C@@H]3[C@H](C[C@@H]1C4)O2`: the “antibacterial activity” value in the assay on Staphylococcus aureus [5] was “Active”.
In the case of `C[C@]12C[C@@]34C=C(Sc5ccc(-c6ccccc6F)cc5)C(=O)[C@@](C)(CCC(=O)Nc5c(O)ccc(C(=O)O)c5O)[C@@H]3[C@H](C[C@@H]1C4)O2`, the “antibacterial activity” value in the assay on Staphylococcus aureus [5] was “Active”.
For the compound `C[C@]12C[C@@]34C=C(Sc5cccc(Cl)c5)C(=O)[C@@](C)(CCC(=O)Nc5c(O)ccc(C(=O)O)c5O)[C@@H]3[C@H](C[C@@H]1C4)O2`, the “antibacterial activity” value with Staphylococcus aureus [5] is “Active”.
In the case of `C[C@]12C[C@@]34C=C(Sc5ccc(N)cc5)C(=O)[C@@](C)(CCC(=O)Nc5c(O)ccc(C(=O)O)c5O)[C@@H]3[C@H](C[C@@H]1C4)O2`, in the assay on Staphylococcus aureus [5], the “antibacterial activity” value is “Active”.
For the compound `C[C@]12C[C@@]34C=C(Sc5ccc(C#CC6(O)CCCCC6)cc5)C(=O)[C@@](C)(CCC(=O)Nc5c(O)ccc(C(=O)O)c5O)[C@@H]3[C@H](C[C@@H]1C4)O2`, the “antibacterial activity” value in the assay on Staphylococcus aureus [5] is “Active”.
`CNC(=O)/C=C/c1cccc(SC2=C[C@]34C[C@H]5C[C@H](O[C@@]5(C)C3)[C@H]4[C@](C)(CCC(=O)Nc3c(O)ccc(C(=O)O)c3O)C2=O)c1`: the “antibacterial activity” value in the assay on Staphylococcus aureus [5] was “Active”.
Regarding `CCSC1=C[C@]23C[C@H]4C[C@H](O[C@@]4(C)C2)[C@H]3[C@](C)(CCC(=O)Nc2c(O)ccc(C(=O)O)c2O)C1=O`, in the assay on Staphylococcus aureus [5], the “antibacterial activity” value is “Active”.
As for `COc1ccccc1-c1ccc(SC2=C[C@]34C[C@H]5C[C@H](O[C@@]5(C)C3)[C@H]4[C@](C)(CCC(=O)Nc3c(O)ccc(C(=O)O)c3O)C2=O)cc1`, the “antibacterial activity” value in the assay with Staphylococcus aureus [5] was “Active”.
Still for that read-out and setting: for `C[C@]12C[C@@]34C=C(Sc5ccc(-c6ccc(C=O)cc6)cc5)C(=O)[C@@](C)(CCC(=O)Nc5c(O)ccc(C(=O)O)c5O)[C@@H]3[C@H](C[C@@H]1C4)O2` the value was “Active”; for `CC(C)(C)SC1=C[C@]23C[C@H]4C[C@H](O[C@@]4(C)C2)[C@H]3[C@](C)(CCC(=O)Nc2c(O)ccc(C(=O)O)c2O)C1=O`, “Active”.
The same measure, in the same setting: for `C[C@]12C[C@@]34C=C(Sc5cccc(Br)c5)C(=O)[C@@](C)(CCC(=O)Nc5c(O)ccc(C(=O)O)c5O)[C@@H]3[C@H](C[C@@H]1C4)O2` the value was “Active”; for `C[C@]12C[C@@]34C=C(Sc5ccc(C#Cc6ccccc6)cc5)C(=O)[C@@](C)(CCC(=O)Nc5c(O)ccc(C(=O)O)c5O)[C@@H]3[C@H](C[C@@H]1C4)O2`, “Active”.
In the case of `C[C@]12C[C@@]34C=C(Sc5cccc(C#Cc6ccc(F)cc6)c5)C(=O)[C@@](C)(CCC(=O)Nc5c(O)ccc(C(=O)O)c5O)[C@@H]3[C@H](C[C@@H]1C4)O2`, the “antibacterial activity” value in the assay on Staphylococcus aureus [5] was “Active”.
Consider `C[C@]12C[C@@]34C=C(Sc5cccc(C#Cc6cccc(N)c6)c5)C(=O)[C@@](C)(CCC(=O)Nc5c(O)ccc(C(=O)O)c5O)[C@@H]3[C@H](C[C@@H]1C4)O2`, for which, in the assay with Staphylococcus aureus [5], the “antibacterial activity” value was “Active”.
Turning to `C[C@]12C[C@@]34C=C(Sc5ccc(-c6cccnc6)cc5)C(=O)[C@@](C)(CCC(=O)Nc5c(O)ccc(C(=O)O)c5O)[C@@H]3[C@H](C[C@@H]1C4)O2`, the “antibacterial activity” value in the assay with Staphylococcus aureus [5] was “Active”.
Regarding `CCCCC#Cc1cccc(SC2=C[C@]34C[C@H]5C[C@H](O[C@@]5(C)C3)[C@H]4[C@](C)(CCC(=O)Nc3c(O)ccc(C(=O)O)c3O)C2=O)c1`, the “antibacterial activity” value in the assay with Staphylococcus aureus [5] was “Active”.
As for `Cc1ccc(SC2=C[C@]34C[C@H]5C[C@H](O[C@@]5(C)C3)[C@H]4[C@](C)(CCC(=O)Nc3c(O)ccc(C(=O)O)c3O)C2=O)c(C)c1`, the “antibacterial activity” value in the assay with Staphylococcus aureus [5] is “Active”.
Still for that read-out and setting: for `C[C@]12C[C@@]34C=C(Sc5ccc(C#Cc6ccc(C(=O)O)cc6)cc5)C(=O)[C@@](C)(CCC(=O)Nc5c(O)ccc(C(=O)O)c5O)[C@@H]3[C@H](C[C@@H]1C4)O2` the value was “Active”.
On the same count and under the same terms, the value for `CC(C)(C)OC(=O)/C=C/c1cccc(SC2=C[C@]34C[C@H]5C[C@H](O[C@@]5(C)C3)[C@H]4[C@](C)(CCC(=O)Nc3c(O)ccc(C(=O)O)c3O)C2=O)c1` was “Active”.
Same read-out and setting: for `C[C@]12C[C@@]34C=C(Sc5cccc(C#Cc6ccc(Cl)cc6)c5)C(=O)[C@@](C)(CCC(=O)Nc5c(O)ccc(C(=O)O)c5O)[C@@H]3[C@H](C[C@@H]1C4)O2` the value was “Active”.
